In patent US12552796B2, “EED inhibitor, and preparation method therefor and use thereof” (SHANGHAITECH UNIVERSITY, priority 2019, dated 2026):
Where two headings read alike, the source gives them in different places.

Columns and labels:
[1] = system: cellular H3K27 methylation; test: Cellular H3K27 methylation assay (Western blot of H3K27me3 in HeLa cells); assay type: cell-based; details: Homo sapiens, 72 h, read-out: PD IC50
WSU-DLCL2 cells = test: Cell proliferation assay, WSU-DLCL2; assay type: cell-based; details: Homo sapiens, WSUDLCL2; WSU-DLCL2 cells, cultured to the 9th day; read-out: Anti-proliferation IC50
Protocol: Human B-cell non-Hodgkin's lymphoma cells WSU-DLCL2, Karpas422 and Pfeiffer were cultured in cell culture flasks in a sterile incubator with 95% relative humidity and 5% CO2 at 37° C. The medium was RPMI-1640 (Gibco, product No. 31800022) containing 15% fetal bovine serum (FBS, Gibco, product No. 10099141) and 0.1% penicillin/streptomycin solution (P/S). In order to assay the effects of compounds on cell proliferation, cells in exponential growth phase were seeded into a 12-well plate (Nunc, product No. 150628) with 1 mL of medium per well, wherein WSU-DLCL2 and Karpas422 were seeded at a density of 1×10^5 cells/well, and Pfeiffer was seeded at a density of 2×10^5 cells/well. At the same time, different concentrations of compounds were added to the wells that had seeded with cells (6 concentrations were set for each compound at 3-fold serial dilution), and the final concentration of DMSO was 0.1%. After that, the number of viable cells was determined by Vi-CELL (Beckman Coulter) for WSU-DLCL2 and Pfeiffer every 3 days, and for Karpas422 on days 4, 7, and 11, respectively. The cells counted each time were seeded into a new 12-well plate at the same density, and supplemented with fresh medium to 1 mL. Different concentrations of compounds were added at the same time. WSU-DLCL2 and Pfeiffer were cultured to the 9th day, and Karpas422 was cultured to the 14th day. Cell data were collected uniformly, and analyzed with GraphPad prisim5. Dose curves were fitted, and IC50 values of the assay compounds were obtained.

[2] = HeLa cells, 3 days, H3K27me3 level by Western blot

Compound	IC50 [1, 2]	also measured
CC(C)Oc1cnc(NCc2c(F)ccc3c2CCO3)n2cnnc12 [HJM-015]	25.4 nM	IC50 (WSU-DLCL2 cells): 115 nM
OCCN1CCC(c2cnc(NCc3c(F)ccc4c3CCO4)n3cnnc23)CC1 [HJM-058]	131 nM	–
Fc1ccc2c(c1CNc1ncc(C3CCN(C4COC4)CC3)c3nncn13)CCO2 [HJM-060]	141 nM	–
CC1COCCN1c1cnc(NCc2c(F)ccc3c2CCO3)n2cnnc12 (stereo not shown) [HJM-061]	110 nM	–
Fc1ccc2c(c1CNc1ncc(N3CCC(F)(F)C3)c3nncn13)CCO2 [HJM-062]	445 nM	–
COC1CCN(c2cnc(NCc3c(F)ccc4c3CCO4)n3cnnc23)C1 (stereo not shown) [HJM-063]	684 nM	–
O=C1CCN(c2cnc(NCc3c(F)ccc4c3CCO4)n3cnnc23)CC1 [HJM-064]	180 nM	–
CS(=O)(=O)Nc1cnc(NCc2c(F)ccc3c2CCO3)n2cnnc12 [HJM-065]	363 nM	–
Fc1ccc2c(c1CNc1ncc(Nc3ccccc3)c3nncn13)CCO2 [HJM-066]	–	IC50 ([1]; HeLa): 228 nM
O=C1CCCCN1c1cnc(NCc2c(F)ccc3c2CCO3)n2cnnc12 [HJM-068]	138 nM	–
CC(=O)Nc1cnc(NCc2c(F)ccc3c2CCO3)n2cnnc12 [HJM-069]	391 nM	–
N#CCC(=O)Nc1cnc(NCc2c(F)ccc3c2CCO3)n2cnnc12 [HJM-074]	554 nM	–
O=C(CO)Nc1cnc(NCc2c(F)ccc3c2CCO3)n2cnnc12 [HJM-075]	690 nM	–
CCCN(C(=O)C1CC1)c1cnc(NCc2c(F)ccc3c2CCO3)n2cnnc12 [HJM-080]	35 nM	–
CN1CCOC(C(=O)Nc2cnc(NCc3c(F)ccc4c3CCO4)n3cnnc23)C1 (stereo not shown) [HJM-086]	188 nM	–
CN1CC(C(=O)Nc2cnc(NCc3c(F)ccc4c3CCO4)n3cnnc23)C1 [HJM-087]	235 nM	–
COCCN1CC(C(=O)Nc2cnc(NCc3c(F)ccc4c3CCO4)n3cnnc23)C1 [HJM-088]	601 nM	–
O=C(CCc1ccccc1)Nc1cnc(NCc2c(F)ccc3c2CCO3)n2cnnc12 [HJM-089]	256 nM	–
COc1ccc(C(=O)Nc2cnc(NCc3c(F)ccc4c3CCO4)n3cnnc23)cc1 [HJM-090]	198 nM	–
COc1ccc(C(=O)Nc2cnc(NCc3c(F)ccc4c3CCO4)n3cnnc23)cn1 [HJM-091]	291 nM	–
O=C(Nc1cnc(NCc2c(F)ccc3c2CCO3)n2cnnc12)c1ccccc1F [HJM-092]	139 nM	–
CS(=O)(=O)c1ccc(C(=O)Nc2cnc(NCc3c(F)ccc4c3CCO4)n3cnnc23)cc1 [HJM-093]	814 nM	–
O=C(Nc1cnc(NCc2c(F)ccc3c2CCO3)n2cnnc12)c1cnco1 [HJM-094]	223 nM	–
O=C(Nc1cnc(NCc2c(F)ccc3c2CCO3)n2cnnc12)c1ncco1 [HJM-095]	178 nM	–
CN1CCN(C(=O)Nc2cnc(NCc3c(F)ccc4c3CCO4)n3cnnc23)CC1 [HJM-097]	792 nM	–
CN(CC1CC1)C(=O)Nc1cnc(NCc2c(F)ccc3c2CCO3)n2cnnc12 [HJM-098]	309 nM	–
O=C(Nc1cnc(NCc2c(F)ccc3c2CCO3)n2cnnc12)N1CCOCC1 [HJM-099]	1590 nM	–

Compound	IC50 [1, 2]	also measured
Fc1ccc2c(c1CNc1ncc(OCC3CC3(F)F)c3nncn13)CCO2 (stereo not shown) [HJM-108]	126 nM	–
O=C(C1CC1)N1CC(Oc2cnc(NCc3c(F)ccc4c3CCO4)n3cnnc23)C1 [HJM-115]	201 nM	–
CN1CC(COc2cnc(NCc3c(F)ccc4c3CCO4)n3cnnc23)C1 [HJM-116]	550 nM	–
CC(=O)N1CC(COc2cnc(NCc3c(F)ccc4c3CCO4)n3cnnc23)C1 [HJM-117]	1300 nM	–
CNCCOc1cnc(NCc2c(F)ccc3c2CCO3)n2cnnc12 [HJM-118]	792 nM	–
CN(C)CCOc1cnc(NCc2c(F)ccc3c2CCO3)n2cnnc12 [HJM-119]	264 nM	–
OC1CCC(Oc2cnc(NCc3c(F)ccc4c3CCO4)n3cnnc23)CC1 (stereo not shown) [HJM-121]	494 nM	–
COC1CCC(COc2cnc(NCc3c(F)ccc4c3CCO4)n3cnnc23)CC1 (stereo not shown) [HJM-123]	132 nM	–
O[C@H]1CC[C@H](COc2cnc(NCc3c(F)ccc4c3CCO4)n3cnnc23)CC1 [HJM-125]	463 nM	–
Fc1ccc2c(c1CNc1ncc(OCCOc3ccccc3)c3nncn13)CCO2 [HJM-126]	92.1 nM	–
COc1ccc(OCCOc2cnc(NCc3c(F)ccc4c3CCO4)n3cnnc23)cc1 [HJM-127]	108 nM	–
Fc1ccc2c(c1CNc1ncc(OCCn3cncn3)c3nncn13)CCO2 [HJM-129]	389 nM	–
Cc1ccc(COc2cnc(NCc3c(F)ccc4c3CCO4)n3cnnc23)cn1 [HJM-130]	104 nM	–
Fc1ccc2c(c1CNc1ncc(OCc3cncnc3)c3nncn13)CCO2 [HJM-131]	130 nM	–
Fc1ccc2c(c1CNc1ncc(OCc3cnccn3)c3nncn13)CCO2 [HJM-132]	123 nM	–
Fc1ccc2c(c1CNc1ncc(OCc3cnco3)c3nncn13)CCO2 [HJM-134]	159 nM	–
CN1CCC(Oc2cnc(NCc3c(F)ccc4c3CCO4)n3cnnc23)C1=O (stereo not shown) [HJM-135]	286 nM	–
CN1CC(Oc2cnc(NCc3c(F)ccc4c3CCO4)n3cnnc23)CC1=O (stereo not shown) [HJM-136]	394 nM	–
Fc1ccc2c(c1CNc1ncc(OCc3ccccc3)c3nncn13)CCO2 [HJM-139]	–	IC50 ([1]; HeLa): 120 nM
Fc1ccc2c(c1CNc1ncc(OCc3cccnc3)c3nncn13)CCO2 [HJM-140]	21.4 nM	–
Fc1ccc2c(c1CNc1ncc(OCc3ccncc3)c3nncn13)CCO2 [HJM-141]	64.4 nM	–
Cc1cccc(COc2cnc(NCc3c(F)ccc4c3CCO4)n3cnnc23)n1 [HJM-143]	204 nM	–
O=C(COc1cnc(NCc2c(F)ccc3c2CCO3)n2cnnc12)C1CC1 [HJM-146]	150 nM	–
CNC(=O)COc1cnc(NCc2c(F)ccc3c2CCO3)n2cnnc12 [HJM-148]	1090 nM	–
CN(C)C(=O)COc1cnc(NCc2c(F)ccc3c2CCO3)n2cnnc12 [HJM-149]	–	IC50 ([1]; HeLa): 546 nM
CN(C)C(=O)Oc1cnc(NCc2c(F)ccc3c2CCO3)n2cnnc12 [HJM-151]	–	IC50 ([1]; HeLa): 91.1 nM
O=C(c1cnc(NCc2c(F)ccc3c2CCO3)n2cnnc12)N1CCC1 [HJM-153]	93.2 nM	–

Further compounds by falling IC50 [1, 2], results first:

IC50 [1, 2]	Compound	also measured
95.3 nM	O=C(NCCOc1cnc(NCc2c(F)ccc3c2CCO3)n2cnnc12)C1CC1 [HJM-147]	–
89.9 nM	O=C(Nc1cnc(NCc2c(F)ccc3c2CCO3)n2cnnc12)c1ccno1 [HJM-096]	–
83.1 nM	CCC(=O)Nc1cnc(NCc2c(F)ccc3c2CCO3)n2cnnc12 [HJM-070]	–
77.6 nM	CN(C)CC(=O)Nc1cnc(NCc2c(F)ccc3c2CCO3)n2cnnc12 [HJM-081]	–
74.4 nM	CC(Oc1cnc(NCc2c(F)ccc3c2CCO3)n2cnnc12)c1cccnc1 (stereo not shown) [HJM-133]	–
72.8 nM	CC(C)C(=O)Nc1cnc(NCc2c(F)ccc3c2CCO3)n2cnnc12 [HJM-071]	–
71.7 nM	Fc1ccc2c(c1CNc1ncc(OCCn3ccnc3)c3nncn13)CCO2 [HJM-144]	–
62.5 nM	COCCN(C)CC(=O)Nc1cnc(NCc2c(F)ccc3c2CCO3)n2cnnc12 [HJM-085]	–
62 nM	Fc1ccc2c(c1CNc1ncc(OCCn3cccc3)c3nncn13)CCO2 [HJM-128]	–
59.7 nM	[2H]C([2H])(Oc1cnc(NCc2c(F)ccc3c2CCO3)n2cnnc12)C1COC1 [HJM-113]	–
54.9 nM	COC1CCC(Oc2cnc(NCc3c(F)ccc4c3CCO4)n3cnnc23)CC1 (stereo not shown) [HJM-122]	–
54.3 nM	Fc1ccc2c(c1CNc1ncc(C3CCCO3)c3nncn13)CCO2 (stereo not shown) [HJM-003]	IC50 (WSU-DLCL2 cells): 131 nM
48.5 nM	Fc1ccc2c(c1CNc1ncc(OC3CC(F)(F)C3)c3nncn13)CCO2 [HJM-107]	–
44.6 nM	CCOCCc1cnc(NCc2c(F)ccc3c2CCO3)n2cnnc12 [HJM-010]	IC50 (WSU-DLCL2 cells): 77.8 nM
40.5 nM	Fc1ccc2c(c1CNc1ncc(C3CCN(CC(F)(F)F)CC3)c3nncn13)CCO2 [HJM-057]	–
39.7 nM	Fc1ccc2c(c1CNc1ncc(OCc3ccccn3)c3nncn13)CCO2 [HJM-142]	–
38.5 nM	Fc1ccc2c(c1CNc1ncc(C3CCN(C4CC4)CC3)c3nncn13)CCO2 [HJM-059]	–
38.5 nM	Fc1ccc2c(c1CNc1ncc(OC(F)F)c3nncn13)CCO2 [HJM-150]	–
37.9 nM	[2H]C([2H])(Nc1ncc(OCC2CCOC2)c2nncn12)c1c(F)ccc2c1CCO2 (stereo not shown) [HJM-111]	–
33.8 nM	COCCCc1cnc(NCc2c(F)ccc3c2CCO3)n2cnnc12 [HJM-011]	IC50 (WSU-DLCL2 cells): 86.3 nM
32.8 nM	[2H]C([2H])(Nc1ncc(OC2CCOCC2)c2nncn12)c1c(F)ccc2c1CCO2 [HJM-110]	–
29.4 nM	[2H]C([2H])(Nc1ncc(OC([2H])([2H])C2COC2)c2nncn12)c1c(F)ccc2c1CCO2 [HJM-112]	–
24.7 nM	[2H]C([2H])(Nc1ncc(OCC2COC2)c2nncn12)c1c(F)ccc2c1CCO2 [HJM-109]	–
14.9 nM	[2H]C([2H])(Nc1ncc(N(C)C(=O)C2CC2)c2nncn12)c1c(F)ccc2c1CCO2 [HJM-077]	–
12.8 nM	O=C(N1CCC(c2cnc(NCc3c(F)ccc4c3CCO4)n3cnnc23)CC1)C(F)(F)F [HJM-056]	–
12.1 nM	[2H]C([2H])(Nc1ncc(N(C(=O)C2CC2)C([2H])([2H])[2H])c2nncn12)c1c(F)ccc2c1CCO2 [HJM-078]	–
6.36 nM	[2H]C([2H])([2H])N(C(=O)C1CC1)c1cnc(NCc2c(F)ccc3c2CCO3)n2cnnc12 [HJM-076]	–
